{
  "source": "patent US20080167248A1",
  "about": "“Anti-Aging Effects Of Substance P” (IMMUNEREGEN BIOSCIENCES, INC., priority 2004, published 2008)",
  "assay_type_in_all_cases": "in vivo",
  "key": {"scalp hair of a human": {"system": "scalp hair of a human", "experiment": "hair styling gel with the analog applied daily to the scalp, hair colour", "settings": "0.001 mg/ml in hair styling gel, approximately 2 ml daily to scalp, after a few months; self-observation", "protocol": "[Sar9,Met (02)11 ]-substance P was formulated in a hair styling gel at a concentration of 0.001 mg/ml and approximately 2 ml were applied daily to my scalp. […] I estimate my head of hair to be about 40% darker. This observation is consistent with results observed on radiation-exposed mice that had been given the substance P analog."}, "radiation-exposed mice": {"system": "radiation-exposed mice", "experiment": "hair regrowth in radiation-exposed mice given the substance P analog"}, "human [1]": {"system": "human", "experiment": "residual muscle pain after a very hard workout", "description": "I ran five miles with four 150M build-ups and threw a 6 Kg shot-put for the first time. This workout was followed by a session of weightlifting. Before I began treatment with the substance P analog I would take Advil™ at least twice on the day of the work out to prevent muscle pain."}, "human [2]": {"system": "human", "experiment": "running speed (150M build-ups, timed 200M run)", "description": "After taking the analog, I “felt” much faster in my 150M build-ups than previously."}, "human [3]": {"system": "human", "experiment": "sleep pattern", "protocol": "I have 6 hours sleep on a regular basis. Approximately a week ago, after taking the analog daily for 2 weeks, I was getting 5 hours sleep."}, "human [4]": {"system": "human", "experiment": "short-term memory", "settings": "since beginning to apply the analog; names and telephone numbers", "description": "I can remember people's names and telephone numbers more readily."}, "human [5]": {"system": "human", "experiment": "visual accommodation (adjustment time between long and near vision)"}},
  "data": [
    {"substance": "[Sar9,Met (02)11 ]-substance P", "values": [
      {"measurement": "head of hair darker (estimate)", "setting": "scalp hair of a human", "result": "about 40%"},
      {"measurement": "overall color of hair", "setting": "scalp hair of a human", "result": "becoming more like my original brown color"},
      {"measurement": "regrowth of hair lost upon radiation exposure", "setting": "radiation-exposed mice; radiation-exposed mice given the substance P analog", "result": "regrew hair that was lost upon radiation exposure"},
      {"measurement": "colour of new hair growth", "setting": "radiation-exposed mice; radiation-exposed mice, versus non-exposed area", "result": "darker than in the non-exposed area"},
      {"measurement": "reduction in residual muscle pain", "setting": "human [1]; after a very hard workout, self-observation", "result": "very large reduction"},
      {"measurement": "tightness or soreness in right arm/shoulder from throwing the shot", "setting": "human [1]; after taking the analog", "result": "nor did I experience tightness or soreness"},
      {"measurement": "muscle pain after the hard workout", "setting": "human [1]; five mile run, four 150M build-ups, 6 Kg shot-put, weightlifting, after taking the analog", "result": "no muscle pain"},
      {"measurement": "perceived speed in 150M build-ups", "setting": "human [2]; after taking the analog, versus previously", "result": "much faster"},
      {"measurement": "time in a 200M run", "setting": "human [2]; timed run", "result": "significantly improved"},
      {"measurement": "quality of sleep, later", "setting": "human [3]; about a week later (now)", "result": "the vivid dreams and less waking up continue"},
      {"measurement": "hours of sleep per night, later", "setting": "human [3]; about a week later (now), reverted", "result": "six"},
      {"measurement": "quality of sleep", "setting": "human [3]; after taking the analog daily for 2 weeks", "result": "deeper with more vivid dreams and less “waking up.”"},
      {"measurement": "hours of sleep", "setting": "human [3]; after taking the analog daily for 2 weeks, regular basis 6 hours", "result": 5, "unit": "h"},
      {"measurement": "memory problems", "setting": "human [4]", "result": "less “middle-aged” memory problems"},
      {"measurement": "adjustment time between long and near vision after 97 days", "setting": "human [5]; after 97 days of administration", "result": "little adjustment time"},
      {"measurement": "adjustment time between long and near vision", "setting": "human [5]; during administration", "result": "shorter and continues to diminish"}
    ]}
  ]
}
